# Test results: patent publication US5591821A (priority 1993, dated 1997)
# Molecular target: GVIA high affinity site, the N-type Ca^2+ channel (Rattus norvegicus, UniProt Q02294)
# Type: binding
# Chain of GVIA high affinity site, the N-type Ca^2+ channel (Q02294 whole entry, looked up): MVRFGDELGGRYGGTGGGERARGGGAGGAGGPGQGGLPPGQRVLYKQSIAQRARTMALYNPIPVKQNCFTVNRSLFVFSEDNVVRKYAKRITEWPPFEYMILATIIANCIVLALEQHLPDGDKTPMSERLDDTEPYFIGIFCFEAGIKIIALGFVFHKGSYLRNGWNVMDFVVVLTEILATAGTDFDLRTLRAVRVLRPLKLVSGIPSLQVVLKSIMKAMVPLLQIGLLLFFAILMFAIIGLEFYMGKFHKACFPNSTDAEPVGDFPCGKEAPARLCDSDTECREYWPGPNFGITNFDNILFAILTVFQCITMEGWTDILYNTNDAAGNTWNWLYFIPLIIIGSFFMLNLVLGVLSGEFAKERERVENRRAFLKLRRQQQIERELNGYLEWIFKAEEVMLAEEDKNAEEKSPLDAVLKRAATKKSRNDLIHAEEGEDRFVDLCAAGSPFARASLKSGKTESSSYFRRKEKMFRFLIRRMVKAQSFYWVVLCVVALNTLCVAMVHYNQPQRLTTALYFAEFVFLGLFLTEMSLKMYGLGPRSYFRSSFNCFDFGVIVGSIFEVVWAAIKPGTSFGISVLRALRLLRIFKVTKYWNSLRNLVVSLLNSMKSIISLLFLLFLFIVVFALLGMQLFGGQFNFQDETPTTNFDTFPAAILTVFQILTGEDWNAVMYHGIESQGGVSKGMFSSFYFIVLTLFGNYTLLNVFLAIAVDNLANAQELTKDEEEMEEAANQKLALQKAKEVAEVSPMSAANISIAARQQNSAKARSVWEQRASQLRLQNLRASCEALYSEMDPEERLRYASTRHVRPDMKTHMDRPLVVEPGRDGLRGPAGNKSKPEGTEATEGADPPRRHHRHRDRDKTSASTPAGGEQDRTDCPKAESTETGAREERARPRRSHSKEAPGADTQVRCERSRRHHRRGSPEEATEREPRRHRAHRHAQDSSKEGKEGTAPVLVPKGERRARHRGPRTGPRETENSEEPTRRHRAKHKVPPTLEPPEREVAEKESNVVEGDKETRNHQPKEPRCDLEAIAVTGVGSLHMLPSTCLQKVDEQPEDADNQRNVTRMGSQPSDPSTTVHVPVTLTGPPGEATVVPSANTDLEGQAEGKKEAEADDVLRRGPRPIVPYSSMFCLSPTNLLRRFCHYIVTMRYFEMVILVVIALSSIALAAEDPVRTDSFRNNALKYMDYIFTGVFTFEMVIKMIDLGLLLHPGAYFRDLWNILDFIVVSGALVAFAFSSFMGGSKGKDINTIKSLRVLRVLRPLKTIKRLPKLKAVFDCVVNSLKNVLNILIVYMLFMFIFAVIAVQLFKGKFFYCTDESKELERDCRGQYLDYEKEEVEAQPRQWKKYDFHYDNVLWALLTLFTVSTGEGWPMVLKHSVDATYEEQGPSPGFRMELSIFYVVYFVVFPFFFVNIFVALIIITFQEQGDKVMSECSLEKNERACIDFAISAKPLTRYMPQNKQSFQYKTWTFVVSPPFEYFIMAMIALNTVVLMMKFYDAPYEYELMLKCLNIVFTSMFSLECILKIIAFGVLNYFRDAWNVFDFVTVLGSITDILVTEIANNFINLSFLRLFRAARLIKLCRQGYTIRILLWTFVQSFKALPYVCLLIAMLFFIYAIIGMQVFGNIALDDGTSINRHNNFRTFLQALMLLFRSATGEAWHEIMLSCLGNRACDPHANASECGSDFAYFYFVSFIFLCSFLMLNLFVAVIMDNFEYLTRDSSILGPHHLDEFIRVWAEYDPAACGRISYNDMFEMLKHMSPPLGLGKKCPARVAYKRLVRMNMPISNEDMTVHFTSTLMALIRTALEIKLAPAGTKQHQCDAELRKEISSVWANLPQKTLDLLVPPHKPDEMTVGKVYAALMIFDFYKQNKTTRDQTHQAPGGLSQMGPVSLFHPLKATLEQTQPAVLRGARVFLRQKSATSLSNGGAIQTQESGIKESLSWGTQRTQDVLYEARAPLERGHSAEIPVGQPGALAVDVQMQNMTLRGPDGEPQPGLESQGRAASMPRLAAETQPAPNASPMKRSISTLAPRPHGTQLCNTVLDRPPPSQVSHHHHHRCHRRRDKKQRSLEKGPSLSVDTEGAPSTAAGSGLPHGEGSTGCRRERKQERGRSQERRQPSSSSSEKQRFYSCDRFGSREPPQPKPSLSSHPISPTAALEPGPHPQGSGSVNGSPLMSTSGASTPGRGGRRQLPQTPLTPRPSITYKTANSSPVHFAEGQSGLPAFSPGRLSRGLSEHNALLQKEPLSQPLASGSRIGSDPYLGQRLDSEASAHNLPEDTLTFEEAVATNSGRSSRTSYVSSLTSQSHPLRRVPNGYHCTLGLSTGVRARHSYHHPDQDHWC
substance,measurement,value
ω-agatoxin IVA,Competition for / displacement of 125I-GVIA binding,did not
